According to ChEMBL document CHEMBL1629655, “Affinity of Tomopenem (CS-023) for penicillin-binding proteins in Staphylococcus aureus, Escherichia coli, and Pseudomonas aeruginosa” (Antimicrob Agents Chemother, 2009):
≈ marks a conversion by molar mass, not a printed value. Calls of active or inactive are those of the source. No cut-off for these calls is given here.

Experiments:
[1] = test system: Escherichia coli; assay: Antibacterial activity against Escherichia coli EIR2b selected at 2 times MIC of imipenem by microdilution method; type: functional
[2] = test system: Pseudomonas aeruginosa; assay: Antibacterial activity against Pseudomonas aeruginosa ATCC 15692 assessed as filamentation of cells at 0.125 times MIC by scanning electron microscopy; type: functional, organism-based
[3] = Displacement of [14C]benzylpenicillin from PBP2 in Pseudomonas aeruginosa ATCC 15692
[4] = test system: Escherichia coli; assay: Antibacterial activity against Escherichia coli ERR4a selected at 4 times MIC of tomopenem by microdilution method; type: functional
[5] = test system: Staphylococcus aureus; assay: Antibacterial activity against Staphylococcus aureus ATCC 6538P assessed as fold decrease in compound susceptibility after 10 passages relative to control; type: functional
[6] = Displacement of [14C]benzylpenicillin from PBP6 Escherichia coli NIHJ
[7] = test system: Escherichia coli; assay: Antibacterial activity against Escherichia coli EIR4b selected at 4 times MIC of imipenem by microdilution method; type: functional
[8] = test system: Staphylococcus aureus; assay: Antibacterial activity against Staphylococcus aureus SMR2a selected at 2 times MIC of meropenem by microdilution method; type: functional
[9] = test system: Escherichia coli; assay: Antibacterial activity against Escherichia coli ERR2b selected at 2 times MIC of tomopenem by microdilution method; type: functional
[10] = test system: Staphylococcus aureus; assay: Antibacterial activity against methicillin-resistant Staphylococcus aureus by microdilution method; type: functional
[11] = Displacement of [14C]benzylpenicillin from PBP1A in Pseudomonas aeruginosa ATCC 15692
[12] = test system: Escherichia coli; assay: Antibacterial activity against Escherichia coli ERR2a selected at 2 times MIC of tomopenem by microdilution method; type: functional
[13] = Displacement of [14C]benzylpenicillin from PBP3 in Staphylococcus aureus ATCC 6538P
[14] = test system: Escherichia coli; assay: Ratio of MIC for Escherichia coli EIR2b to MIC for Escherichia coli NIHJ; type: functional
[15] = Displacement of [14C]benzylpenicillin from PBP1B in Escherichia coli NIHJ
[16] = Displacement of [14C]benzylpenicillin from PBP1A in Escherichia coli NIHJ
[17] = Displacement of [14C]benzylpenicillin from PBP4 in Escherichia coli NIHJ
[18] = test system: Pseudomonas aeruginosa; assay: Ratio of MIC for Pseudomonas aeruginosa PMR2a to MIC for Pseudomonas aeruginosa ATCC 15692; type: functional
[19] = Displacement of [14C]benzylpenicillin from PBP3 in Escherichia coli NIHJ
[20] = test system: Escherichia coli; assay: Ratio of MIC for Escherichia coli ERR2b to MIC for Escherichia coli NIHJ; type: functional
[21] = test system: Pseudomonas aeruginosa; assay: Antibacterial activity against Pseudomonas aeruginosa PRR4a selected at 4 times MIC of tomopenem by microdilution method; type: functional
[22] = Displacement of [14C]benzylpenicillin from PBP 5 in Pseudomonas aeruginosa ATCC 15692
[23] = test system: Pseudomonas aeruginosa; assay: Antibacterial activity against Pseudomonas aeruginosa ATCC 15692 assessed as fold decrease in compound susceptibility after 10 passages relative to control; type: functional
[24] = test system: Staphylococcus aureus; assay: Antibacterial activity against Staphylococcus aureus SIR2a selected at 2 times MIC of imipenem by microdilution method; type: functional
[25] = test system: Staphylococcus aureus; assay: Ratio of MIC for Staphylococcus aureus SMR2a to MIC for Staphylococcus aureus ATCC 6538P; type: functional
[26] = Displacement of [14C]benzylpenicillin from PBP5 in Escherichia coli NIHJ
[27] = test system: Pseudomonas aeruginosa; assay: Antibacterial activity against Pseudomonas aeruginosa ATCC 15692 by microdilution method; type: functional, organism-based
[28] = test system: Escherichia coli; assay: Antibacterial activity against Escherichia coli EIR4a selected at 4 times MIC of imipenem by microdilution method; type: functional
[29] = test system: Staphylococcus aureus; assay: Antibacterial activity against methicillin-sensitive Staphylococcus aureus by microdilution method; type: functional
[30] = test system: Escherichia coli; assay: Antibacterial activity against Escherichia coli EIR2a selected at 2 times MIC of imipenem by microdilution method; type: functional
[31] = test system: Pseudomonas aeruginosa; assay: Antibacterial activity against Pseudomonas aeruginosa PIR2a selected at 2 times MIC of imipenem by microdilution method; type: functional
[32] = test system: Escherichia coli; assay: Antibacterial activity against Escherichia coli EMR2a selected at 2 times MIC of meropenem by microdilution method; type: functional
[33] = test system: Pseudomonas aeruginosa; assay: Antibacterial activity against Pseudomonas aeruginosa ATCC 15692 assessed as appearance of bulge cells at MIC by Scanning electron microscopy; type: functional, organism-based
[34] = test system: Escherichia coli; assay: Antibacterial activity against Escherichia coli EIR8a selected at 8 times MIC of imipenem by microdilution method; type: functional
[35] = test system: Escherichia coli; assay: Ratio of MIC for Escherichia coli ERR4a to MIC for Escherichia coli NIHJ; type: functional
[36] = test system: Escherichia coli; assay: Antibacterial activity against Escherichia coli NIHJ by microdilution method; type: functional, organism-based
[37] = Displacement of [14C]benzylpenicillin from PBP 6 in Pseudomonas aeruginosa ATCC 15692
[38] = Displacement of [14C]benzylpenicillin from PBP1B in Pseudomonas aeruginosa ATCC 15692
[39] = test system: Escherichia coli; assay: Antibacterial activity against Escherichia coli NIHJ assessed as appearance of spherical and bulge cells at 8 times MIC by Scanning electron microscopy; type: functional, organism-based
[40] = test system: Escherichia coli; assay: Ratio of MIC for Escherichia coli EIR4a to MIC for Escherichia coli NIHJ; type: functional
[41] = test system: Staphylococcus aureus; assay: Antibacterial activity against Staphylococcus aureus SRR2a selected at 2 times MIC of tomopenem by microdilution method; type: functional
[42] = Displacement of [14C]benzylpenicillin from PBP4 in Staphylococcus aureus ATCC 6538P
[43] = test system: Pseudomonas aeruginosa; assay: Ratio of MIC for Pseudomonas aeruginosa PRR4a to MIC for Pseudomonas aeruginosa ATCC 15692; type: functional
[44] = test system: Staphylococcus aureus; assay: Ratio of MIC for Staphylococcus aureus SIR2a selected at 2 times MIC of imipenem to MIC for Staphylococcus aureus ATCC 6538P; type: functional
[45] = test system: Escherichia coli; assay: Ratio of MIC for Escherichia coli ERR2a selected to MIC for Escherichia coli NIHJ; type: functional
[46] = test system: Escherichia coli; assay: Ratio of MIC for Escherichia coli EIR2a to MIC for Escherichia coli NIHJ; type: functional
[47] = test system: Pseudomonas aeruginosa; assay: Antibacterial activity against Pseudomonas aeruginosa PMR2a selected at 2 times MIC of meropenem by microdilution method; type: functional
[48] = test system: Staphylococcus aureus; assay: Antibacterial activity against Staphylococcus aureus SMR4a […] MIC of meropenem by microdilution method; type: functional
[49] = Displacement of [14C]benzylpenicillin from PBP4 in Pseudomonas aeruginosa ATCC 15692
[50] = test system: Escherichia coli; assay: Ratio of MIC for Escherichia coli ERR8a to MIC for Escherichia coli NIHJ; type: functional
[51] = test system: Escherichia coli; assay: Ratio of MIC for Escherichia coli EIR4b to MIC for Escherichia coli NIHJ; type: functional
[52] = test system: Escherichia coli; assay: Ratio of MIC for Escherichia coli EIR8a to MIC for Escherichia coli NIHJ; type: functional
[53] = Displacement of [14C]benzylpenicillin from PBP1 in Staphylococcus aureus ATCC 6538P
[54] = test system: Pseudomonas aeruginosa; assay: Ratio of MIC for Pseudomonas aeruginosa PIR2a to MIC for Pseudomonas aeruginosa ATCC 15692; type: functional
[55] = test system: Escherichia coli; assay: Antibacterial activity against Escherichia coli NIHJ assessed as appearance of swollen cells at 1/8 times MIC by Scanning electron microscopy; type: functional, organism-based
[56] = test system: Staphylococcus aureus; assay: Ratio of MIC for Staphylococcus aureus SMR4a to MIC for Staphylococcus aureus ATCC 6538P; type: functional
[57] = Displacement of [14C]benzylpenicillin from PBP2 Staphylococcus aureus ATCC 6538P
[58] = Displacement of [14C]benzylpenicillin from PBP3 in Pseudomonas aeruginosa ATCC 15692
[59] = test system: Escherichia coli; assay: Ratio of MIC for Escherichia coli EMR2a to MIC for Escherichia coli NIHJ; type: functional
[60] = test system: Staphylococcus aureus; assay: Ratio of MIC for Staphylococcus aureus SRR2a to MIC for Staphylococcus aureus ATCC 6538P; type: functional
[61] = test system: Staphylococcus aureus; assay: Antibacterial activity against Staphylococcus aureus ATCC 6538P by microdilution method; type: functional, organism-based
[62] = Displacement of [14C]benzylpenicillin from PBP2 in Escherichia coli NIHJ
[63] = test system: Escherichia coli; assay: Antibacterial activity against Escherichia coli ERR8a selected at 8 times MIC of tomopenem by microdilution method; type: functional

## C[C@@H](O)[C@H]1C(=O)N2C(C(=O)O)=C(S[C@H]3C[C@@H](C(=O)N4CC[C@H](NC(=O)CNC(=N)N)C4)N(C)C3)[C@H](C)[C@H]12 [TOMOPENEM]
[1]
  MIC: 0.06 µg/mL
[2]
  Activity: Active
[3]
  IC50: 0.011 µg/mL (≈ 0.0205 µM)
[4]
  MIC: 0.12 µg/mL
[5]
  fold change (FC): 2
[6]
  IC50: 31 µg/mL (≈ 57.7 µM)
[7]
  MIC: 0.06 µg/mL
[8]
  MIC: 0.25 µg/mL
[9]
  MIC: 0.12 µg/mL
[10]
  MIC50: 4 µg/mL (≈ 7.44 µM)
  MIC90: 8 µg/mL (≈ 14.9 µM)
[11]
  IC50: 0.061 µg/mL (≈ 0.113 µM)
[12]
  MIC: 0.12 µg/mL
[13]
  IC50: > 32 µg/mL
[14]
  Ratio MIC: 2
[15]
  IC50: 1.3 µg/mL (≈ 2.42 µM)
[16]
  IC50: 1.2 µg/mL (≈ 2.23 µM)
[17]
  IC50: > 32 µg/mL
[18]
  Ratio MIC: 8
[19]
  IC50: 0.71 µg/mL (≈ 1.32 µM)
[20]
  Ratio MIC: 4
[21]
  MIC: 8 µg/mL
[22]
  IC50: 5 µg/mL (≈ 9.3 µM)
[23]
  fold change (FC): 8
[24]
  MIC: 0.25 µg/mL
[25]
  Ratio MIC: 4
[26]
  IC50: 5.7 µg/mL (≈ 10.6 µM)
[27]
  MBC: 0.5 µg/mL (≈ 0.93 µM)
  MIC: 0.5 µg/mL (≈ 0.93 µM)
[28]
  MIC: 0.06 µg/mL
[29]
  MIC50: 0.12 µg/mL (≈ 0.223 µM)
  MIC90: 0.12 µg/mL (≈ 0.223 µM)
[30]
  MIC: 0.06 µg/mL
[31]
  MIC: 2 µg/mL
[32]
  MIC: 0.06 µg/mL
[33]
  Activity: Active
[34]
  MIC: 0.06 µg/mL
[35]
  Ratio MIC: 4
[36]
  MBC: 0.03 µg/mL (≈ 0.0558 µM)
  MIC: 0.03 µg/mL (≈ 0.0558 µM)
[37]
  IC50: 5 µg/mL (≈ 9.3 µM)
[38]
  IC50: 0.053 µg/mL (≈ 0.0986 µM)
[39]
  Activity: Active
[40]
  Ratio MIC: 2
[41]
  MIC: 0.25 µg/mL
[42]
  IC50: 0.094 µg/mL (≈ 0.175 µM)
[43]
  Ratio MIC: 32
[44]
  Ratio MIC: 4
[45]
  Ratio MIC: 4
[46]
  Ratio MIC: 2
[47]
  MIC: 2 µg/mL
[48]
  MIC: 0.5 µg/mL
[49]
  IC50: 3.5 ng/mL (≈ 0.00651 µM)
[50]
  Ratio MIC: 4
[51]
  Ratio MIC: 2
[52]
  Ratio MIC: 2
[53]
  IC50: 0.16 µg/mL (≈ 0.298 µM)
[54]
  Ratio MIC: 8
[55]
  Activity: Active
[56]
  ratio: 8
[57]
  IC50: 0.21 µg/mL (≈ 0.391 µM)
[58]
  IC50: 0.011 µg/mL (≈ 0.0205 µM)
[59]
  Ratio MIC: 2
[60]
  Ratio MIC: 4
[61]
  IC50: 0.06 µg/mL (≈ 0.112 µM)
  MBC: 0.06 µg/mL (≈ 0.112 µM)
  MIC: 0.06 µg/mL (≈ 0.112 µM)
[62]
  IC50: 0.017 µg/mL (≈ 0.0316 µM)
[63]
  MIC: 0.12 µg/mL
